Data set [1] has as its system E. coli ATCC 25922. Format: cell-based. Conditions: ATCC 25922, 24 h. Put shortly: (§1)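 MIC = lowest peptide concentration with no resazurin color change. Two-fold serial dilutions, 24 h incubation, then resazurin 0.1 mg/mL for 2 h. Median of ≥3 independent triplicate experiments.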
The test system of data set [2] is E. coli ML35p. Format: cell-based. The note with it: ML35p, 24 h. An outline of the steps: as §1
For data set [3], the system named is all the test strains. Format: cell-based. Conditions: geometric mean over the 10 test strains. An outline of the steps:
as §1

In data set [4] the test system is Acinetobacter baumannii (strain XDR CI 2675). The class given is cell-based. The note with it: strain XDR CI 2675, 24 h. Put shortly:
as §1

The subject of data set [5] is E. coli BW 25113. The class given is cell-based. The note with it: two-fold serial dilutions, 24 h incubation, resazurin read-out; median of at least three independent experiments in triplicate. An outline of the steps:
as §1

The test system of data set [6] is S. aureus ATCC 29213. Format: cell-based, Staphylococcus aureus. Conditions: ATCC 29213, 24 h. An outline of the steps:
as §1

For data set [7], the system named is S. aureus 209P. Format: cell-based, Staphylococcus aureus. The note with it: 24 h. An outline of the steps:
as §1

Data set [8] relates to P. aeruginosa PAO1. The class given is cell-based, Pseudomonas aeruginosa. The note with it: PAO1, 24 h. Put shortly: as §1
The test system of data set [9] is P. aeruginosa ATCC 27853. The class given is cell-based, Pseudomonas aeruginosa. The note with it: ATCC 27853, 24 h. Put shortly:
as §1

In data set [10] the test system is M. luteus B-1314. The class given is cell-based, Micrococcus luteus. The note with it: B-1314, 24 h. Put shortly: as §1
Data set [11] concerns E. coli ATCC 25922. Nature of the data set: Systemic septicemia infection mice model. The class given is in vivo. The note with it: BALB/c mice n = 5, i.p. E. coli ATCC 25922 10^6 CFU with mucin, 5 mg/kg i.p. at 1 h and 4 h, 7 days. On the procedure: Experiments were performed with male and female 8–10-week-old BALB/c mice (22–24 g, “Andreevka” laboratory animal nursery FMBA, Russia) according to the previously described method. Briefly, a total of 3 groups of 5 mice per group were infected by intraperitoneal (i.p.) injection of the bacterial inoculum (E. coli ATCC 25922), 10^6 colony forming units (CFU) per animal, in the presence of mucin. All the animals received two i.p. injections: 1 h and 4 h after bacterial challenge. The first group received ciprofloxacin (Sigma-Aldrich, St. Louis, MO, USA) as a positive control at a dose of 10 mg/kg per injection. The second group received peptide [V16R] at a dose of 5 mg/kg per injection. The third group received PBS as a vehicle control. Animals were monitored for 7 days post-infection. All the surviving mice were euthanized by CO2 asphyxiation. The spleen was aseptically removed, homogenized, serially diluted, and plated on Endo agar to detect CFU in a sample.

For data set [12], the system named is freshly isolated human erythrocytes (hRBCs). Nature of the data set: Hemolysis assay (hemoglobin release). Format: cell-based. Conditions: red cells of human, 64. The text has this: To assess the hemolytic activity of the compounds, freshly isolated human erythrocytes (hRBCs) were used according to the methodology described in a previous study. Melittin was used as a positive peptide control that induces significant hemolysis. Isotonic phosphate buffer (PBS) served as a negative control, while 0.1% Triton X-100 solution was used as a control for complete hemolysis.

Data set [13] concerns human keratinocyte cell line (HaCaT). The experiment in a line: Cytotoxicity MTT assay. The class given is cell-based. Conditions: 18 h, 128. An outline of the steps: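 Colorimetric MTT dye-reduction assay on human HaCaT keratinocytes, with peptide-free wells as 100% survival. Each peptide tested in two separate experiments.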
In general terms: Formazan colour is commonly taken as a measure of viable cells.

The test system of data set [14] is K. pneumoniae ATCC 700603. Format: cell-based, Klebsiella pneumoniae. Conditions: ATCC 700603, 24 h. Put shortly: as §1

Converted amounts (≈) assume the structure as drawn. Positions of bridges follow the written chain, without caps; N, C: chain ends. Residues, ends and D or L forms follow the SMILES beside them.

The results in this text go back to publication PMC10458893, “Design of Protegrin-1 Analogs with Improved Antibacterial Selectivity” (Pharmaceutics, 2023).

On to `CC(C)C[C@H](NC(=O)[C@H](CCCNC(=N)N)NC(=O)CNC(=O)CNC(=O)[C@@H](N)CCCNC(=N)N)C(=O)N[C@H]1CSSC[C@@H](C(=O)N[C@@H](CCCNC(=N)N)C(=O)NCC(=O)N[C@@H](CCCNC(=N)N)C(=O)O)NC(=O)[C@H](C(C)C)NC(=O)[C@@H]2CSSC[C@H](NC(=O)[C@H](Cc3ccc(O)cc3)NC1=O)C(=O)N[C@@H](CCCNC(=N)N)C(=O)N[C@@H](CCCNC(=N)N)C(=O)N[C@@H](CCCNC(=N)N)C(=O)N[C@@H](Cc1ccccc1)C(=O)N2` [[V16R]] (H-RGGRLCYCRRRFCVCRGR-OH; disulfide 6-15, 8-13), for which the “MIC, E. coli ATCC 25922” value in data set [1] amounted to 0.5 µM (≈ 1.11 µg/mL). For the same compound, the “MIC, E. coli ML35p” value in [2] turned out to be 0.25 µM (≈ 0.553 µg/mL). In data set [3], the “MIC (GM), geometric mean of the peptide's MICs against all the test strains” value stood at 0.8 µM. For the same compound, the “MIC, A. baumannii” value in [4] amounted to 0.125 µM (≈ 0.277 µg/mL). The “MIC, E. coli BW 25113” value in data set [5] was found to be 0.25 µM (≈ 0.553 µg/mL). In addition, the “MIC, S. aureus ATCC 29213” value in data set [6] stood at 4 µM (≈ 8.85 µg/mL). In addition, in [7], the “MIC, S. aureus 209P” value stood at 4 µM (≈ 8.85 µg/mL). Moreover, the “MIC, P. aeruginosa PAO1” value in data set [8] is 1 µM (≈ 2.21 µg/mL). In addition, the “MIC, P. aeruginosa ATCC 27853” value in [9] was determined as 0.5 µM (≈ 1.11 µg/mL). Moreover, in data set [10], the “MIC, M. luteus B-1314” value stood at 1 µM (≈ 2.21 µg/mL). Moreover, the Deaths of mice result in data set [11] is given as “two out of five”. Besides, the “Therapeutic efficacy (survival)” value in [11] (chloride form) is on record as 60%. In addition, the “Hemolytic activity, % (64 μM)” value in data set [12] is reported as 2.8 (±0.2) %. Besides, the “Cell Viability, % (128 μM)” value in [13] is recorded as 80.0 (± 8.62) %. For the same compound, in [14], the “MIC, K. pneumoniae ATCC 700603” value was 4 µM (≈ 8.85 µg/mL).
